{"source": "patent US20060008800A1", "about": "“Unc-13 in the modulation of neurotransmission and secretion events” (priority 2002, published 2006)", "key": {"[1]": {"test_system": "Munc13-1 deficient hippocampal neurons", "assay": "EPSC augmentation following high frequency action potential trains in Munc13-1 deficient, Munc13-2 dependent neurons", "assay_type": "cell-based, mouse"}, "[2]": {"test_system": "hippocampal neurons", "assay": "β-phorbol ester induced potentiation of evoked synaptic currents in autaptic neuron cultures (patch clamp)", "assay_type": "cell-based, mouse", "conditions": "for effect of PKC inhibitor on β-PE induced increase/potentiation of evoked EPSCs: 3 μM inhibitor, 1 μM PDBU", "experimental": "(§1) Microisland culture preparation was performed according to Bekkers and Stevens (1991). The extracellular medium contained (mM): NaCl, 167; KCl, 2.4; HEPES, 10; glucose, 10; CaCl2, 4; MgCl2, 4 (340 mOsm, pH 7.3). Solutions were applied and recordings were performed as described in Rosenmund (1995). To examine synaptically activated currents, experiments were performed using recurrent synapses (autapses) or only single autaptic neuroeses on microisland cultures at room temperature (=24° C.). Pipette solutions included (mM): KCl, 120, or K-Gluconate, 125; HEPES, 10; EGTA, 1; MgCl2, 4.6; Na4ATP, 4; Creatinephosphate, 15; creatinephosphokinase 50 U/ml (320 mOsm, pH 7.3). Wild type and Munc13-1 deficient glutamatergic hippocampal neurons were used to study the characteristics of Munc13-1 and Munc13-1 independent synapses. For these purposes, individual neurons grown on microisland beds of glial cells (Bekkers, 1991) were employed. In this autaptic culture system, where isolated nerve cells make multiple synaptic contacts, so called autapses, with their own dendritic trees, spontaneous transmitter release, release of the readily releasable vesicle pool induced by hypertonic solutions, and action potential evoked release arise from the same synapse population and can be measured readily with patch clamp techniques. Autaptic responses were obtained after brief (1-2 ms) somatic depolarization. This induces an unclamped action potential that is followed by a postsynaptic response with a delay of 2-4 ms. Excitatory, glutamatergic and inhibitory, GABAergic synaptic currents were distinguished by their characteristic pharmacological and kinetic properties. Excitatory glutamatergic cells were mainly characterized because the differential equipment of presynaptic terminals formed by the same axon with Munc13 priming factors is not apparent in GABAergic neurons.\nDesign of and infection with Semliki Forest Virus was done according to published procedures (Betz, 2001; Ashery, 2000). Cells were measured 22-26 h after infection.\nRoutinely, cells from Munc13-1^H567K/Munc13-1^H567K mutants were analyzed 12-20 day after plating and compared to wild type control cells obtained from littermates. In some experiments we employed Munc13-1/Munc13-2 double deficient neurons as model cells to study the characteristics of the Munc13-1^H567K variant in comparison to wild type Munc13-1 following overexpression using the Semliki-Forest-Virus system. In contrast to Munc13-1 deficient glutamatergic hippocampal neurons, which still show measurable glutamate release (10% of wild type levels; Augustin, 1999b), double homozygous Munc13-1/Munc13-2 deletion mutant neurons are characterized by a complete lack of spontaneous and evoked transmitter release but can be rescued by reintroduction of Munc13 proteins. This rescue approach was persued in Munc13-1/Munc13-2 double mutant neurons instead of breeding the Munc13-1^H567K/Munc 3-1^H567K mutation into the Munc13-2 deletion mutant background because it was much faster and allowed the direct comparison of additional mutant (Betz, 2001) and wild type Munc13-1 variants in the same cultures. Autaptic responses were obtained after brief (1-2 ms) somatic depolarization. This induces an unclamped action potential that is followed by a postsynaptic response with a delay of 2-4 ms. Excitatory, glutamatergic synaptic currents were identified by their characteristic pharmacological and kinetic properties."}, "[3]": {"test_system": "hippocampal neurons", "assay": "α-latrotoxin induced mEPSC/mIPSC activity", "assay_type": "cell-based, mouse", "experimental": "as §1\nGiven that neither action potentials nor hypertonic stimuli successfully evoked synaptic transmission and no mPSCs were detectable in Munc13-1/2 double deficient cells, it is possible that postsynaptic development is impaired in mutant cells. To test this directly, the spider toxin α-latrotoxin was used which allows to partially circumvent the need for priming factors in vesicular release (Augustin, 1999b). […] The average amplitude of these events was 22.7±2.4 pA (FIG. 5B). Both, mEPSC frequency and amplitude values are similar to wild type values (not shown)."}, "[4]": {"molecular_target": "T1, Calmodulin (Rattus norvegicus, UniProt P0DP29)", "T1 construct": "from tissue; host or cells: rat brain synaptosomes, extracted with 1% Igepal", "assay": "Cosedimentation of Calmodulin from rat brain synaptosome extract with GST fusion proteins", "assay_type": "binding", "conditions": "for Calmodulin binding in cosedimentation: 15 μg fusion protein, 3 mM Ca", "experimental": "GST fusion proteins containing the Calmodulin binding sites of rat Munc13-1 and ubMunc13-2 as well as GST alone were expressed in bacteria, purified and adsorbed onto glutathione beads in equal amounts for subsequent use in cosedimentation assays with rat brain synaptosome extract. Proteins that bound to the immobilized GST fusion proteins were analyzed by SDS-PAGE and immunoblotting with a specific Calmodulin antibody. Calmodulin binds specifically to wt GST-Munc13-1 (445-567) and GST-ubMunc13-2 (372-494). Calmodulin binding is completely abolished by the point mutations in the conserved tryptophanes (Position 1 in the alignment figure x).\nSuch a tool is a point mutation in a Munc13 protein that abolishes Calmodulin binding. On basis of the evolutionarily conservation of the tryptophane residues (FIG. 22), and since these hydrophobic residues make contact to Calmodulin, we created expression constructs that contain W464R mutation in case of Munc13-1 and a W387R mutation in case of ubMunc13-2. The effect of these mutations on Calmodulin binding was determined in cosedimentation experiments (FIG. 24). GST-tagged fragments of Munc13-1 (aa 445-567) or ubMunc13-2 (aa 372494) were expressed in bacteria and purified according to standard protocols. 15 μg of each expressed fusion protein were used to test for Calmodulin binding from 2 ml of a rat brain synaptosome extract. Rat brain synaptosomes were extracted with Igepal (1%) at a protein concentration of 2 mg/ml in a buffer containing Tris 50 mM pH 8, NaCl 150 mM, EGTA 1 mM and a cocktail of protease inhibitors. The cosedimentation experiment was performed as described prebviously (Betz, Neuron 30 […] 183-196)."}, "[5]": {"molecular_target": "Calmodulin (Homo sapiens, UniProt P0DP23)", "assay": "Tryptophane fluorescence emission of peptides as reporter for Calmodulin binding", "conditions": "10 μM peptide; for binding of Ca^2+/Calmodulin: excess calcium", "experimental": "FIG. 23: Tryptophane fluorescence emission spectra of peptides reflecting the Calmodulin binding site of rat Munc13-1 and ubMunc13-2. 10 μM of each peptide were measured in NH4Acetate 0.25 M, 1 mM EGTA. Excitation was at 290 nm.\nThe Excitation shutter was adjusted to 1 nm bandwith, the emission shutter to 8 nm bandwidth. Pathlenght was 3 mm. All measurements were carried out at room temperature. The exact sequences of each peptide are given in the text. […] In case of the Munc13-1 peptide, Calcium independent binding is also observed, while the binding of Munc13-2 peptides strictly requires Ca2+ for binding.\nThe tryptophane fluorescence of the peptides was used as a reporter for Calmodulin binding in an experimental setup that was essentially identical to the experiments described elsewhere. (O'Neil et al.). Excitation of 10 μM solutions of the peptides in 0.25 M NH4Acetate pH 8 and 1 mM EGTA at 290 nm (bandwidth 1 nm) produced a maximum in the emission (bandwidth 8 nm) of both peptides at 355 nm. […] The same experiment was performed with the peptide derived of ubMunc13-2. […] In view of the evolutionarily conservation of the motif, other members of the protein family are likely to be Calmodulin targets, too."}, "[6]": {"conditions": "cocktail of phosphatase inhibitors: cypermethrin 1 nM, calyculin A 10 μM, cyclosporine A 1 μM"}, "[7]": {"conditions": "1 nM, Munc13-1/2 double deficient neurons"}}, "note": "“Also recorded” adds a separate entry of the source.", "data": [{"compound": "CC(=O)OCOC(=O)CN(CCOCCOCCN(CC(=O)OCOC(C)=O)CC(=O)OCOC(C)=O)CC(=O)OCOC(C)=O", "note": "[EGTA-AM]", "values": [{"measurement": "EPSC augmentation", "setting": "[1]; 10 Hz train, pretreatment 50 μM, 20 min", "value": "2.0±0.4", "unit": "fold"}, {"measurement": "maximal EPSC augmentation", "setting": "[1]; 40 Hz train, pretreatment 50 μM, 20 min", "value": "11.0±1.5", "unit": "fold"}, {"measurement": "augmentation in frequency-augmentation profile", "setting": "[1]; frequencies below 40 Hz, pretreatment 50 μM, 20 min", "value": "strongly reduced"}]}, {"compound": "COc1ccc2c(c1)c(C1=C(c3c[nH]c4ccccc34)C(=O)NC1=O)cn2CCCN(C)C", "note": "[GÖ 6983]", "values": [{"measurement": "β-PE induced increase in evoked EPSCs", "setting": "[2]; 1 μM PDBU after preincubation for 2 min and in the presence of 3 μM GÖ 6983, wild type neurons", "value": "150±6 % of baseline values"}, {"measurement": "effect of PKC inhibitor on β-PE induced increase/potentiation of evoked EPSCs", "setting": "[2]; wild type neurons", "value": "had no effect"}]}, {"compound": "NS(=O)(=O)c1cccc2c1c([N+](=O)[O-])cc1nc(O)c(O)nc12", "note": "[NBQX]", "values": [{"measurement": "effect on α-latrotoxin induced mEPSC signals", "setting": "[3]; Munc13-2 deficient and Munc13-1/2 double deficient neurons", "value": "blocked"}]}, {"compound": "CN(C)CCCn1cc(C2=C(c3c[nH]c4ccccc34)C(=O)NC2=O)c2ccccc21", "note": "[bisindolylmaleimide I]", "values": [{"measurement": "potentiation of evoked EPSCs by 1 μM PDBU after bisindolylmaleimide I pretreatment", "setting": "[2]", "value": "73±8.3", "unit": "%"}, {"measurement": "effect of PKC inhibitor on β-PE induced increase/potentiation of evoked EPSCs", "setting": "[2]; wild type neurons", "value": "does not prevent"}, {"measurement": "reduction of evoked EPSC responses (rundown)", "setting": "[2]; 3 μM, four minute application period, wild type neurons", "value": "41±11", "unit": "%"}]}, {"compound": "COC[C@@H]([C@H](O)[C@H](O)C(=O)NCC[C@H](C)c1nc(/C=C/C[C@@H]2O[C@]3(C[C@@H](O)[C@@H]2C)O[C@H]([C@H](C[C@H](O)[C@H](C)[C@H](O)[C@H](C)/C=C(C)/C(C)=C/C=C/C(C)=C\\C#N)OC)[C@H](OP(=O)(O)O)C3(C)C)co1)N(C)C", "note": "[calyculin A]", "values": [{"measurement": "effect on augmentation", "setting": "[1]; [6]", "value": "did not alter augmentation"}, {"measurement": "effect on augmentation", "setting": "[1]; cocktail of phosphatase inhibitors: cypermethrin 1 nM, calyculin A 10 μM, cyclosporine A 1 μM, listed as calyculinA", "value": "ineffective in blocking augmentation"}]}, {"compound": "CC1(C)C(C=C(Cl)Cl)C1C(=O)OC(C#N)c1cccc(Oc2ccccc2)c1", "note": "(stereo not drawn) [cypermethrin]", "values": [{"measurement": "effect on augmentation", "setting": "[1]; [6]", "value": "ineffective in blocking augmentation; also recorded: did not alter augmentation"}]}, {"compound": "C/C1=C/C(=O)O[C@@H]2C[C@@H](CC[C@H](C)/C=C\\CC1)O[C@@](O)([C@@H]1CSC(=O)N1)C2", "note": "[latrunculin B]", "values": [{"measurement": "effect on augmentation", "setting": "[1]; 10 μM", "value": "ineffective in blocking augmentation; also recorded: failed to affect augmentation"}]}, {"compound": "C=C1[C@@H](O)[C@@H]2O[C@]3(CC[C@H](/C=C/[C@@H](C)[C@@H]4CC(C)=C[C@@]5(O[C@H](C[C@@](C)(O)C(=O)O)CC[C@H]5O)O4)O3)CC[C@H]2O[C@@H]1[C@@H](O)C[C@H](C)[C@H]1O[C@@]2(CCCCO2)CC[C@H]1C", "note": "[okadaic acid]", "values": [{"measurement": "effect on augmentation", "setting": "[1]; 1 μM, alone", "value": "unable to block augmentation; also recorded: did not alter augmentation"}]}, {"compound": "CN[C@@H]1C[C@H]2O[C@@](C)([C@@H]1OC)n1c3ccccc3c3c4c(c5c6ccccc6n2c5c31)C(=O)NC4", "note": "[staurosporine]", "values": [{"measurement": "effect on augmentation", "setting": "[1]; 100 nM", "value": "failed to suppress augmentation"}]}, {"compound": "GSTMunc13-1 (aa 445-567): GST-tagged fragment of rat Munc13-1 (aa 445-567) containing the Calmodulin binding site, expressed in bacteria", "values": [{"measurement": "calcium dependence of Calmodulin binding in cosedimentation", "setting": "[4]", "value": "partially independent of Ca^2+"}, {"measurement": "Calmodulin binding in cosedimentation", "setting": "[4]", "value": "robustly bound"}]}, {"compound": "GSTubMunc13-2 (aa 372-494): GST-tagged fragment of rat ubMunc13-2 (aa 372-494) containing the Calmodulin binding site, expressed in bacteria", "values": [{"measurement": "Calmodulin binding in cosedimentation", "setting": "[4]", "value": "robustly bound"}]}, {"compound": "cqarahwfravtkvrlqlqeis (CQARAHWFRAVTKVRLQLQEIS) [peptide derived of ubMunc13-2]", "values": [{"measurement": "calcium dependence of Calmodulin binding", "setting": "[5]", "value": "absolutely dependent on the presence of calcium"}, {"measurement": "binding of Ca^2+/Calmodulin", "setting": "[5]", "value": "bound"}]}, {"compound": "crakanwlrafnkvrmqlqear (CRAKANWLRAFNKVRMQLQEAR) [Munc13-1 derived peptide]", "values": [{"measurement": "calcium dependence of Calmodulin binding", "setting": "[5]", "value": "partially Ca2+ independent binding"}, {"measurement": "emission spectrum change on addition of Apocalmodulin (Calcium-free Calmodulin)", "setting": "[5]; equimolar Apocalmodulin, 1 mM EGTA", "value": "pronounced blue shift and slight intensity increase"}, {"measurement": "binding of Ca^2+/Calmodulin", "setting": "[5]", "value": "tighter binding"}]}, {"compound": "α-latrotoxin", "values": [{"measurement": "mEPSC amplitude", "setting": "[3]; [7]", "value": "25.6±2.6", "unit": "pA"}, {"measurement": "mEPSC-like event frequency", "setting": "[3]; [7]", "value": "0.074±0.024", "unit": "Hz"}, {"measurement": "average mEPSC amplitude", "setting": "[3]; 1 nM, Munc13-2 single mutant control neurons", "value": "22.7±2.4", "unit": "pA"}, {"measurement": "mEPSC frequency", "setting": "[3]; five minutes following 60 s application of 1 nM, Munc13-2 single mutant control neurons", "value": "23.4±3.9", "unit": "Hz"}]}]}
